Data published in PubChem BioAssay (NCI).
Values joined by “and” are separate entries in the source; they are usually repeats but may differ in a detail not shown here. Equal entries are not always repeated.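 Method: 48-hour compound exposure of cells in 96-well plates, five concentrations, linear interpolation of endpoints. GI50 is the concentration that inhibits growth by half. The concentration for full growth arrest is given as TGI.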

Columns and labels:
Experiment in all cases: growth of human tumour cells (NCI), 48 h
KM12 colon = tested on: KM12 colon
SK-MEL-2 melanoma = tested on: SK-MEL-2 melanoma
SF-539 CNS = tested on: SF-539 CNS
ACHN renal = tested on: ACHN renal
UO-31 renal = tested on: UO-31 renal
SK-MEL-28 melanoma = tested on: SK-MEL-28 melanoma
HL-60(TB) leukemia = tested on: HL-60(TB) leukemia
MDA-MB-435 = tested on: MDA-MB-435

SMILES | GI50 (KM12 colon) | TGI (KM12 colon) | GI50 (SK-MEL-2 melanoma) [µM] | TGI (SK-MEL-2 melanoma) [µM] | GI50 (SF-539 CNS) [µM] | TGI (SF-539 CNS) | GI50 (ACHN renal) | TGI (ACHN renal) | GI50 (UO-31 renal) | TGI (UO-31 renal) | GI50 (SK-MEL-28 melanoma) [µM] | TGI (SK-MEL-28 melanoma) | GI50 (HL-60(TB) leukemia) [µM] | TGI (HL-60(TB) leukemia) [µM] | GI50 (MDA-MB-435) [µM] | TGI (MDA-MB-435)
C1C[OH+]CC[OH+]CC[OH+]CC[OH+]CC[OH+]CC[OH+]1.[Cl-].[Ta+5] | > 100 µM | > 100 µM | > 100 | > 100 | > 100 | > 100 µM | > 100 µM | > 100 µM | 5.02 µM | 30.3 µM | > 100 | > 100 µM | > 100 | > 100 | – | –
C=C(C(=O)OC)[C@@H]1C[C@@H](O)[C@]2(C)CC/C=C(\C)CCC[C@H](C)[C@H](O)C1O2 | 41 µM | > 100 µM | 48.5 | > 100 | > 100 | > 100 µM | 57.5 µM | > 100 µM | 52.8 µM | > 100 µM | > 100 | > 100 µM | – | – | 37.8 | > 100 µM
CN1c2ccccc2C(C)(C)C12CC(c1ccc(Cl)c(S(=O)(=O)N3CCCC3)c1)=NO2 (stereo not given) | – | – | > 100 | > 100 | > 100 | > 100 µM | > 100 µM | > 100 µM | > 100 µM | > 100 µM | > 100 | > 100 µM | > 100 | > 100 | > 100 | > 100 µM
CC(C)(CCC(C)(C)c1ccccc1)c1ccccc1 | – | 30.6 µM | – | 31.5 | – | 43.6 µM | – | 31.7 µM | – | – | – | 42.7 µM | – | 32.5 | – | 49.9 µM
COc1ccc(-c2c(C#N)c(N)nc3c2CCCc2ccc(F)cc2-3)cc1OC | < 0.01 µM | 2.58 µM | < 0.01 | > 100 | < 0.01 | 0.0213 µM | – | 19.4 µM | 0.148 µM | > 100 µM | 1.03 | > 38 µM | < 0.01 | > 100 | – | –
COC(=O)[C@H](Cc1ccccc1)NC(=O)[C@@H](OC)[C@@H]1Cc2cc3cc(OC4CC(OC5CC(O)C(O)C(C)O5)C(O)C(C)O4)c(C)c(O)c3c(O)c2C(=O)[C@H]1OC1CC(OC2CC(OC3CC(C)(O)C(O)C(C)O3)C(O)C(C)O2)C(O)C(C)O1 (stereo not given in full) | 0.0148 µM | 0.12 µM | 0.0173 | 0.0707 | 0.0088 | 0.065 µM | – | – | 0.0343 µM | 0.332 µM | 0.00578 | 0.0368 µM | 0.0336 | 0.649 | 0.0182 | 0.0642 µM
COc1ccc(C(=O)N/N=C/c2ccc(O)cc2O)cc1Nc1ccnc(C(F)(F)F)c1 | 1.82 µM | 13.9 µM | 9.23 | 30.6 | 0.404 | 7.78 µM | 1.54 µM | 35.8 µM | 2.64 µM | > 63.8 µM | 0.298 | 4.98 µM | 0.291 | 0.923 | 0.507 | 21.1 µM
C#CC#CC#CC#CC#CC#CC#CC#CCC1OC[C@H](COC(=O)O[C@@H](C(=O)O[C@H]2C[C@@]3(O)[C@@H](OC(=O)c4ccccc4)[C@@H]4[C@]5(OC(C)=O)CO[C@@H]5C[C@H](O)[C@@]4(C)C(=O)[C@H](OC(C)=O)C(=C2C)C3(C)C)[C@@H](NC(=O)c2ccccc2)c2ccccc2)O1 (stereo not given in full) | 0.196 µM | > 33.3 µM | 1.56 | > 33.3 | 0.298 | 4.68 µM | > 33.3 µM | > 33.3 µM | > 33.3 µM | > 33.3 µM | – | – | 0.172 | > 10.9 | 0.044 | 0.109 µM
COc1ccc2c(c1)C(=O)c1c-2n(CCCCl)c(=O)c2cc(N(C)C)ccc12 | 3.56 µM | > 100 µM | > 100 | > 100 | 12.4 | 47.4 µM | 36 µM | > 100 µM | > 100 µM | > 100 µM | > 100 | > 100 µM | > 100 | > 100 | 81.8 | > 100 µM
O=[N+]([O-])c1ccc(O)c2ncccc12 | 3.92 µM and 4.31 µM | > 100 µM and 16.5 µM | 4.06 | 19.3 | – | > 100 µM and 20.8 µM | 42.5 µM and 4.81 µM | > 100 µM and 35.8 µM | 18.7 µM and 3.93 µM | > 100 µM and 20.8 µM | – | > 100 µM and 24.7 µM | – | – | – | > 100 µM and 15.2 µM
COc1cccc(C2C(C#N)=C(N)Oc3cc(OC)ccc32)c1 (stereo not given) | 0.0314 µM | 5.61 µM | – | – | 0.0231 | 0.0596 µM | 0.138 µM | > 100 µM | 0.0572 µM | 31.1 µM | 0.0577 | > 100 µM | 0.0263 | 0.077 | – | –
Clc1ccc(-c2cn(-c3ccccc3)c(-c3ccccc3)n2)c(Cl)c1 | 0.932 µM | 2.02 µM | > 50 | > 50 | 2.2 | > 50 µM | 2.22 µM | > 50 µM | 10.2 µM | > 50 µM | 4.86 | > 41.2 µM | 9.74 | > 50 | 1.69 | 10.1 µM
Oc1ccc(-c2nc3ccc4[nH]ncc4c3c3c2CCCC3)c2cccnc12 | 0.311 µM | 7.93 µM | 0.452 | 3.5 | 0.145 | 1.87 µM | 0.181 µM | 3.07 µM | 0.128 µM | 0.934 µM | 0.498 | 8.61 µM | 0.639 | 3.14 | 0.148 | 2.77 µM
CCc1nc(N)nc(N)c1-c1ccc(Cl)c(N=NN(C)C)c1 | – | > 97.3 µM | – | 62.1 | – | 56.9 µM | – | > 89.7 µM | – | > 70.4 µM | – | > 75.5 µM | – | > 52.9 | – | > 92.1 µM
C=C1C(=O)O[C@H]2[C@H]1CC/C(COC(=O)C(=O)c1cn(C)c3ccc(OC)cc13)=C\CC[C@@]1(C)O[C@@H]21 | 6.41 µM | 13.3 µM | – | – | 4.96 | 8.94 µM | 3.18 µM | 7.79 µM | 2.42 µM | 6.02 µM | 3.14 | 8.49 µM | 3.03 | 8.89 | 3.83 | 9.49 µM
CC(C)[C@@H](CS(=O)(=O)C(C)C)N1C(=O)[C@@](C)(CC(=O)O)C[C@H](c2cccc(Cl)c2)[C@H]1c1ccc(Cl)cc1 | 16 µM | > 51.6 µM | 17.6 | 42.1 | 14 | 35.9 µM | 0.394 µM | 15.4 µM | 0.303 µM | 7.14 µM | 15.5 | 61.2 µM | 17.7 | 46.8 | 15.3 | 45.5 µM
